This note sets out measurements from patent publication US20080161232A1, “C5a Receptor Antagonist” (JERINI AG, priority 2005, published 2008).

Positions of bridges follow the written chain, without caps; N, C: chain ends. Non-standard residues stand in square brackets, D forms with d. Residues, ends and D or L forms follow the SMILES beside them. *: point of attachment. Phe(3-Cl) = N[C@@H](Cc1cccc(Cl)c1)C(=O)O; Phe(2-Cl) = N[C@@H](Cc1ccccc1Cl)C(=O)O; Phe(4-F) = N[C@@H](Cc1ccc(F)cc1)C(=O)O; Hyp = O=C(O)[C@@H]1C[C@@H](O)CN1; d(hLeu) = CC(C)CC[C@@H](N)C(=O)O; dCha = N[C@H](CC1CCCCC1)C(=O)O; Chg = N[C@H](C(=O)O)C1CCCCC1; hLeu = CC(C)CC[C@H](N)C(=O)O; NMeS = CN[C@@H](CO)C(=O)O; Nle = CCCC[C@H](N)C(=O)O; Orn = NCCC[C@H](N)C(=O)O; Nva = CCC[C@H](N)C(=O)O; tBu = CC(C)(C)*

The assay has as its target T1, human C5aR(CD88) (Homo sapiens, UniProt P21730).
T1 construct: expressed in transfected cells; host or cells: rat basophilic leukemia cells (RBL)
T1 sequence (P21730 1-350): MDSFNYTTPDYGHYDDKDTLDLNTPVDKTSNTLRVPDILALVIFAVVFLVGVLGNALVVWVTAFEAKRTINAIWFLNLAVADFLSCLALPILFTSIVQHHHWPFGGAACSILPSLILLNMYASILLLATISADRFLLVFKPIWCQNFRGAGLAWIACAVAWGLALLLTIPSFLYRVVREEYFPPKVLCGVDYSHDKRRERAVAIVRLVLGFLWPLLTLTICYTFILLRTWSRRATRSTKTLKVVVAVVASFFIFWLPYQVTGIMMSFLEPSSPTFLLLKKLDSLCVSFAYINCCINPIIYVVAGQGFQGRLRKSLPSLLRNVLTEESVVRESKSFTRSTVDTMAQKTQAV
Description: Determination of the IC50 value in an enzyme release assay (functional assay, antagonistic activity). Type of assay: cell-based. Conditions: antagonistic activity; IC50 group in enzyme release assay, RBL cells expressing human C5aR(CD88); read-out: activity (group).

Turning to `CCCC[C@@H]1NC(=O)[C@H](Cc2ccc(F)cc2)NC(=O)[C@@H](CSC(C)(C)C)NC(=O)[C@@H]2C[C@@H](O)CN2C(=O)[C@@H](NC(=O)[C@@H](N)Cc2ccccc2)CCCNC1=O` [Compound 358, H-Phe-[Orn-Hyp-ctb-Pff-Nle]] (H-F[Orn][Hyp][dC](tBu)[Phe(4-F)][Nle]; lactam 2-C), the IC50 lay in the range of 50 to 200 nM. For `CCCC[C@@H]1NC(=O)[C@H](Cc2c[nH]c3ccccc23)NC(=O)[C@@H](CSC(C)(C)C)NC(=O)[C@@H]2C[C@@H](O)CN2C(=O)[C@@H](NC(=O)[C@@H](N)Cc2ccccc2)CCCNC1=O` [Compound 359, H-Phe-[Orn-Hyp-ctb-Trp-Nle]] (H-F[Orn][Hyp][dC](tBu)W[Nle]; lactam 2-C), the IC50 is 20 to 50 nM. The same measure for `CC(C)(C)SC[C@H]1NC(=O)[C@@H]2C[C@@H](O)CN2C(=O)[C@@H](NC(=O)[C@@H](N)Cc2ccccc2)CCCNC(=O)[C@H](Cc2ccccc2)NC(=O)[C@H](Cc2c[nH]c3ccccc23)NC1=O` [Compound 360, H-Phe-[Orn-Hyp-ctb-Trp-Phe]] (H-F[Orn][Hyp][dC](tBu)WF; lactam 2-C): 20 to 50 nM; for `CC(C)CC[C@H]1NC(=O)[C@@H]2C[C@@H](O)CN2C(=O)[C@@H](NC(=O)[C@@H](N)Cc2ccccc2)CCCNC(=O)[C@H](CC(C)C)NC(=O)[C@H](Cc2cccc(Cl)c2)NC1=O` [Compound 361, H-Phe-[Orn-Hyp-hle-Mcf-Leu]] (H-F[Orn][Hyp][d(hLeu)][Phe(3-Cl)]L; lactam 2-C): 50 to 200 nM; for `CC(C)CC[C@H]1NC(=O)[C@@H]2C[C@@H](O)CN2C(=O)[C@@H](NC(=O)[C@@H](N)Cc2ccccc2)CCCNC(=O)[C@H](C2CCCCC2)NC(=O)[C@H](Cc2ccc(F)cc2)NC1=O` [Compound 362, H-Phe-[Orn-Hyp-hle-Pff-Chg]] (H-F[Orn][Hyp][d(hLeu)][Phe(4-F)][Chg]; lactam 2-C): 50 to 200 nM. The same measure for `CC(C)CC[C@@H]1NC(=O)[C@H](Cc2ccc(F)cc2)NC(=O)[C@@H](CCC(C)C)NC(=O)[C@@H]2C[C@@H](O)CN2C(=O)[C@@H](NC(=O)[C@@H](N)Cc2ccccc2)CCCNC1=O` [Compound 363, H-Phe-[Orn-Hyp-hle-Pff-Hle]] (H-F[Orn][Hyp][d(hLeu)][Phe(4-F)][hLeu]; lactam 2-C): 50 to 200 nM; for `CC(C)CC[C@H]1NC(=O)[C@@H]2C[C@@H](O)CN2C(=O)[C@@H](NC(=O)[C@@H](N)Cc2ccccc2)CCCNC(=O)[C@H](CC(C)C)NC(=O)[C@H](Cc2ccc(F)cc2)NC1=O` [Compound 364, H-Phe-[Orn-Hyp-hle-Pff-Leu]] (H-F[Orn][Hyp][d(hLeu)][Phe(4-F)]L; lactam 2-C): 50 to 200 nM; for `CCCC[C@@H]1NC(=O)[C@H](Cc2ccc(F)cc2)NC(=O)[C@@H](CCC(C)C)NC(=O)[C@@H]2C[C@@H](O)CN2C(=O)[C@@H](NC(=O)[C@@H](N)Cc2ccccc2)CCCNC1=O` [Compound 365, H-Phe-[Orn-Hyp-hle-Pff-Nle]] (H-F[Orn][Hyp][d(hLeu)][Phe(4-F)][Nle]; lactam 2-C): 50 to 200 nM. For `CC(C)CC[C@H]1NC(=O)[C@@H]2C[C@@H](O)CN2C(=O)[C@@H](NC(=O)[C@@H](N)Cc2ccccc2)CCCNC(=O)[C@H](Cc2ccccc2)NC(=O)[C@H](Cc2ccc(F)cc2)NC1=O` [Compound 366, H-Phe-[Orn-Hyp-hle-Pff-Phe]] (H-F[Orn][Hyp][d(hLeu)][Phe(4-F)]F; lactam 2-C), the IC50 was in the range of 50 to 200 nM. As to `CC(C)CC[C@@H]1NC(=O)[C@H](Cc2c[nH]c3ccccc23)NC(=O)[C@@H](CCC(C)C)NC(=O)[C@@H]2C[C@@H](O)CN2C(=O)[C@@H](NC(=O)[C@@H](N)Cc2ccccc2)CCCNC1=O` [Compound 367, H-Phe-[Orn-Hyp-hle-Trp-Hle]] (H-F[Orn][Hyp][d(hLeu)]W[hLeu]; lactam 2-C), the IC50 was in the range of 50 to 200 nM. Regarding `CC(C)CC[C@H]1NC(=O)[C@@H]2C[C@@H](O)CN2C(=O)[C@@H](NC(=O)[C@@H](N)Cc2ccccc2)CCCNC(=O)[C@H](CC(C)C)NC(=O)[C@H](Cc2c[nH]c3ccccc23)NC1=O` [Compound 368, H-Phe-[Orn-Hyp-hle-Trp-Leu]] (H-F[Orn][Hyp][d(hLeu)]WL; lactam 2-C), the IC50 lay within 20 to 50 nM.

Consider `CCCC[C@@H]1NC(=O)[C@H](Cc2c[nH]c3ccccc23)NC(=O)[C@@H](CCC(C)C)NC(=O)[C@@H]2C[C@@H](O)CN2C(=O)[C@@H](NC(=O)[C@@H](N)Cc2ccccc2)CCCNC1=O` [Compound 369, H-Phe-[Orn-Hyp-hle-Trp-Nle]] (H-F[Orn][Hyp][d(hLeu)]W[Nle]; lactam 2-C), for which the IC50 was in the range of 20 to 50 nM.

As to `CCC[C@@H]1NC(=O)[C@H](Cc2c[nH]c3ccccc23)NC(=O)[C@@H](CCC(C)C)NC(=O)[C@@H]2C[C@@H](O)CN2C(=O)[C@@H](NC(=O)[C@@H](N)Cc2ccccc2)CCCNC1=O` [Compound 370, H-Phe-[Orn-Hyp-hle-Trp-Nva]] (H-F[Orn][Hyp][d(hLeu)]W[Nva]; lactam 2-C), the IC50 was in the range of 50 to 200 nM. The same measure for `CC(C)CC[C@H]1NC(=O)[C@@H]2C[C@@H](O)CN2C(=O)[C@@H](NC(=O)[C@@H](N)Cc2ccccc2)CCCNC(=O)[C@H](Cc2ccccc2)NC(=O)[C@H](Cc2c[nH]c3ccccc23)NC1=O` [Compound 371, H-Phe-[Orn-Hyp-hle-Trp-Phe]] (H-F[Orn][Hyp][d(hLeu)]WF; lactam 2-C): 20 to 50 nM; for `CCCC[C@@H]1NC(=O)[C@H](Cc2c[nH]c3ccccc23)NC(=O)[C@@H](CC2CCCCC2)NC(=O)[C@H](CO)N(C)C(=O)[C@@H](NC(=O)[C@@H](N)Cc2ccccc2)CCCNC1=O` [Compound 372, H-Phe-[Orn-NMS-cha-Trp-Nle]] (H-F[Orn][NMeS][dCha]W[Nle]; lactam 2-C): 50 to 200 nM. `CC(C)CC[C@H]1NC(=O)[C@H](CO)N(C)C(=O)[C@@H](NC(=O)[C@@H](N)Cc2ccccc2)CCCNC(=O)[C@H](Cc2ccccc2)NC(=O)[C@H](Cc2ccc(F)cc2)NC1=O` [Compound 373, H-Phe-[Orn-NMS-hle-Pff-Phe]] (H-F[Orn][NMeS][d(hLeu)][Phe(4-F)]F; lactam 2-C): the IC50 was 50 to 200 nM. As to `CCCC[C@@H]1NC(=O)[C@H](Cc2ccc(F)cc2)NC(=O)[C@@H](CC2CCCCC2)NC(=O)[C@@H]2CCCN2C(=O)[C@@H](NC(=O)[C@@H](N)Cc2ccccc2)CCCNC1=O` [Compound 374, H-Phe-[Orn-Pro-cha-Pff-Nle]] (H-F[Orn]P[dCha][Phe(4-F)][Nle]; lactam 2-C), the IC50 lay within 50 to 200 nM. In the case of `N[C@@H](Cc1ccccc1)C(=O)N[C@H]1CCCNC(=O)[C@H](Cc2ccccc2)NC(=O)[C@H](Cc2ccc(F)cc2)NC(=O)[C@@H](CC2CCCCC2)NC(=O)[C@@H]2CCCN2C1=O` [Compound 375, H-Phe-[Orn-Pro-cha-Pff-Phe]] (H-F[Orn]P[dCha][Phe(4-F)]F; lactam 2-C), the IC50 was 50 to 200 nM. Regarding `CCCC[C@@H]1NC(=O)[C@H](Cc2c[nH]c3ccccc23)NC(=O)[C@@H](CC2CCCCC2)NC(=O)[C@@H]2CCCN2C(=O)[C@@H](NC(=O)[C@@H](N)Cc2ccccc2)CCCNC1=O` [Compound 376, H-Phe-[Orn-Pro-cha-Trp-Nle]] (H-F[Orn]P[dCha]W[Nle]; lactam 2-C), the IC50 was in the range of 50 to 200 nM. The same measure for `CC(C)CC[C@H]1NC(=O)[C@@H]2CCCN2C(=O)[C@@H](NC(=O)[C@@H](N)Cc2ccccc2)CCCNC(=O)[C@H](Cc2ccccc2)NC(=O)[C@H](Cc2cccc(Cl)c2)NC1=O` [Compound 377, H-Phe-[Orn-Pro-hle-Mcf-Phe]] (H-F[Orn]P[d(hLeu)][Phe(3-Cl)]F; lactam 2-C): 20 to 50 nM; for `CC(C)CC[C@H]1NC(=O)[C@@H]2CCCN2C(=O)[C@@H](NC(=O)[C@@H](N)Cc2ccccc2)CCCNC(=O)[C@H](Cc2ccccc2)NC(=O)[C@H](Cc2ccccc2Cl)NC1=O` [Compound 378, H-Phe-[Orn-Pro-hle-Ocf-Phe]] (H-F[Orn]P[d(hLeu)][Phe(2-Cl)]F; lactam 2-C): 50 to 200 nM; for `CCCC[C@@H]1NC(=O)[C@H](Cc2ccc(F)cc2)NC(=O)[C@@H](CCC(C)C)NC(=O)[C@@H]2CCCN2C(=O)[C@@H](NC(=O)[C@@H](N)Cc2ccccc2)CCCNC1=O` [Compound 379, H-Phe-[Orn-Pro-hle-Pff-Nle]] (H-F[Orn]P[d(hLeu)][Phe(4-F)][Nle]; lactam 2-C): 50 to 200 nM. For the compound `CC(C)CC[C@H]1NC(=O)[C@@H]2CCCN2C(=O)[C@@H](NC(=O)[C@@H](N)Cc2ccccc2)CCCNC(=O)[C@H](Cc2ccccc2)NC(=O)[C@H](Cc2ccc(F)cc2)NC1=O` [Compound 380, H-Phe-[Orn-Pro-hle-Pff-Phe]] (H-F[Orn]P[d(hLeu)][Phe(4-F)]F; lactam 2-C), the IC50 was in the range of 20 to 50 nM. `CCCC[C@@H]1NC(=O)[C@H](Cc2c[nH]c3ccccc23)NC(=O)[C@@H](CCC(C)C)NC(=O)[C@@H]2CCCN2C(=O)[C@@H](NC(=O)[C@@H](N)Cc2ccccc2)CCCNC1=O` [Compound 381, H-Phe-[Orn-Pro-hle-Trp-Nle]] (H-F[Orn]P[d(hLeu)]W[Nle]; lactam 2-C): the IC50 lay in the range of 20 to 50 nM. To `CCCC[C@@H]1NC(=O)[C@H](Cc2c[nH]c3ccccc23)NC(=O)[C@@H](CC2CCCCC2)NC(=O)[C@H](CO)NC(=O)[C@@H](NC(=O)[C@@H](N)Cc2ccccc2)CCCNC1=O` [Compound 382, H-Phe-[Orn-Ser-cha-Trp-Nle]] (H-F[Orn]S[dCha]W[Nle]; lactam 2-C) belongs 20 to 50 nM. On to `N[C@@H](Cc1ccccc1)C(=O)N[C@H]1CCCNC(=O)[C@H](Cc2ccccc2)NC(=O)[C@H](Cc2c[nH]c3ccccc23)NC(=O)[C@@H](CC2CCCCC2)NC(=O)[C@H](CO)NC1=O` [Compound 383, H-Phe-[Orn-Ser-cha-Trp-Phe]] (H-F[Orn]S[dCha]WF; lactam 2-C), for which the IC50 lay in the range of 20 to 50 nM.
